The experiment has as its system C. glabrata parent strain (ATCC 90030) and C. glabrata mutants. The experiment in a line: microbe, parasite or virus in culture. It is filed as cell-based. Conditions: for MIC80: C. glabrata parent strain.
The mark [1] stands for this setting: C. glabrata (ATCC 90030) parent strain.

≈ marks a conversion by molar mass, not a printed value. Where two headings read alike, the source gives them in different places.

Consider `O=C(Cc1ccc(CCCCc2ccccc2)cc1)NO` [Cpd 4], for which, under setting [1], the “4-fold synergy Fluconazole/Cpd 4” value is on record as 0.25–0.5 ug/ml Cpd 4 and the “4-fold synergy Itraconazole/Cpd 4” value is 0.25–0.5 ug/ml Cpd 4. In addition, the “Compound 4 concentration for synergy with azoles” value (itraconazole, fluconazole, all azole-resistant mutants tested) was ≤ 4 µg/mL. For the same molecule, for the setting “itraconazole-resistant mutants”, the “Compound 4 concentration lowering itraconazole MIC80” value is ≤ 44 µg/mL.

`OC(Cn1cncn1)(Cn1cncn1)c1ccc(F)cc1F` [fluconazole]: the MIC80 by setting is: (Nakaseomyces glabratus, ATCC90030, azole alone) 32 µg/mL (≈ 104 µM); (azole alone) 32 to 64 µg/mL. Also, the MIC reads like this: (Nakaseomyces glabratus, ATCC90030, read-out: fluconazole MIC in presence of Compound 4, fluconazole-resistant mutants) 4 to 32 µg/mL; (Nakaseomyces glabratus, ATCC90030, read-out: fluconazole MIC in presence of Compound 4, susceptible parent) 4 to 8 µg/mL.

The values are drawn from patent publication US8759400B2, “Histone deacetylase inhibitors for enhancing activity of antifungal agents” (MethylGene Inc., priority 2005, dated 2014).
